Measurements as given in ChEMBL document CHEMBL1201862, “PubChem BioAssay data set” (2004).
Activity calls are given as the source filed them.

Legend:
Cytochrome P450 2D6 = Cytochrome P450 2D6 (Homo sapiens, UniProt P10635);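 note: CYP2D6 member of a cytochrome P450 panel assay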
Cytochrome P450 2C19 = Cytochrome P450 2C19 (Homo sapiens, UniProt P33261); experiment: Cytochrome panel assay with activity outcomes. Panel member name: p450-cyp2c19 Compounds with AC50 equal or less than 10 uM are considered active; assay type: functional; details: read-out: AC50
Cytochrome P450 2C9 = Cytochrome P450 2C9 (Homo sapiens, UniProt P11712)
Protein RecA = target: T1, Protein RecA (Mycobacterium tuberculosis, UniProt P9WHJ3); experiment: Fluorescence Cell-Free Homogeneous Dose Retest to Identify Inhibitors of RecA-Intein Splicing Activity. [Related pubchem assays (depositor defined):AID2097, AID2223, AID489010, AID492950]; assay type: functional
T1 sequence (P9WHJ3 whole entry): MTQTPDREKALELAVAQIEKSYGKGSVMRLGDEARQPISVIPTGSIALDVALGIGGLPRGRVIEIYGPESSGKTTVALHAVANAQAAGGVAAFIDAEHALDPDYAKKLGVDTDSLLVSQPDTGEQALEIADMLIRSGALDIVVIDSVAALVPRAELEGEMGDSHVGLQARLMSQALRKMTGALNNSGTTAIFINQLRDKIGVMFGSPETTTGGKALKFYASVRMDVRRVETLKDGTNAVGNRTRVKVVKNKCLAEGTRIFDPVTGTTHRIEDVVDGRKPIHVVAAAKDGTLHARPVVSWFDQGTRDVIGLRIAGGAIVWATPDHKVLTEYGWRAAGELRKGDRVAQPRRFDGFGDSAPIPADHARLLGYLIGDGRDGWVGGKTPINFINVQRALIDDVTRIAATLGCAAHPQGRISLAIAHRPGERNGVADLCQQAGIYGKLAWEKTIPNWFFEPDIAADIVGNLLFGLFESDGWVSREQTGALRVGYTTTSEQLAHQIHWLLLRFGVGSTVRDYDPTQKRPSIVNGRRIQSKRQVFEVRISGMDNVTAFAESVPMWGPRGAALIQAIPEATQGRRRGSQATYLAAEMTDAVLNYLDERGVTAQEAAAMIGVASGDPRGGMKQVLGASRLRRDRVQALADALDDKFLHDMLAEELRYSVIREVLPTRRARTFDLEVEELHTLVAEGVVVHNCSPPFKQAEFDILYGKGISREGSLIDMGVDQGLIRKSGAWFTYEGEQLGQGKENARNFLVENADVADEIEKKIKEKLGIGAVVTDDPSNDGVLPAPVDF

[1] = target: T2, Replicative DNA helicase DnaB (Mycobacterium tuberculosis, UniProt P9WMR3); experiment: DnaB intein splicing inhibitors, dose response, biochemical, cell-free fluorescence (AID 449749); assay type: functional
T2 sequence (P9WMR3 whole entry): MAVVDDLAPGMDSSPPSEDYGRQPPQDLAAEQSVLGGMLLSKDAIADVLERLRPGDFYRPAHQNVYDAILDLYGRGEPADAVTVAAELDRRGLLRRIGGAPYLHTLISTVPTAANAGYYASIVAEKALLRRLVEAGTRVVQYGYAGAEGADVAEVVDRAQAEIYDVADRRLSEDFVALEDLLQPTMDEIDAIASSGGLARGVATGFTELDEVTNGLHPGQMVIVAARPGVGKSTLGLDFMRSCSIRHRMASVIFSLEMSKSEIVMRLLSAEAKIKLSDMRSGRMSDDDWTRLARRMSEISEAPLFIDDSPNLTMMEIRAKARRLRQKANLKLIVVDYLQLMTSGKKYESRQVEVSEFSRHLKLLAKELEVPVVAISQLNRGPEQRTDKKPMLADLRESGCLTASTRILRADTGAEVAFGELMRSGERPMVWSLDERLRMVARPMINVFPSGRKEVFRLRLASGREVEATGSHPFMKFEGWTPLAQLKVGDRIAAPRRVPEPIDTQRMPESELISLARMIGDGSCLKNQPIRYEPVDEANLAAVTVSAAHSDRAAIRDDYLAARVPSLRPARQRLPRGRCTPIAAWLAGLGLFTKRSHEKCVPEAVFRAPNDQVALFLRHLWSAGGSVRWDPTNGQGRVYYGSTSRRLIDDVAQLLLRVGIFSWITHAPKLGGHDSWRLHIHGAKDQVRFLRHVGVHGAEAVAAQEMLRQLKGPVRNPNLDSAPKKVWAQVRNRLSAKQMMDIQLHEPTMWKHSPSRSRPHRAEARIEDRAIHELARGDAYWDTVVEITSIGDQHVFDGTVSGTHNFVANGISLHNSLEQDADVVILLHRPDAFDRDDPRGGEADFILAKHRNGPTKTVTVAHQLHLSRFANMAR

Leucine aminopeptidase = target: T3, Leucine aminopeptidase (Plasmodium falciparum 3D7, UniProt Q8IL11); experiment: P. falciparum M17LAP inhibitors, primary screen, biochemical, fluorogenic H-Leu-NHMec substrate, 1536-well (AID 1619); assay type: functional
T3 sequence (Q8IL11 whole entry): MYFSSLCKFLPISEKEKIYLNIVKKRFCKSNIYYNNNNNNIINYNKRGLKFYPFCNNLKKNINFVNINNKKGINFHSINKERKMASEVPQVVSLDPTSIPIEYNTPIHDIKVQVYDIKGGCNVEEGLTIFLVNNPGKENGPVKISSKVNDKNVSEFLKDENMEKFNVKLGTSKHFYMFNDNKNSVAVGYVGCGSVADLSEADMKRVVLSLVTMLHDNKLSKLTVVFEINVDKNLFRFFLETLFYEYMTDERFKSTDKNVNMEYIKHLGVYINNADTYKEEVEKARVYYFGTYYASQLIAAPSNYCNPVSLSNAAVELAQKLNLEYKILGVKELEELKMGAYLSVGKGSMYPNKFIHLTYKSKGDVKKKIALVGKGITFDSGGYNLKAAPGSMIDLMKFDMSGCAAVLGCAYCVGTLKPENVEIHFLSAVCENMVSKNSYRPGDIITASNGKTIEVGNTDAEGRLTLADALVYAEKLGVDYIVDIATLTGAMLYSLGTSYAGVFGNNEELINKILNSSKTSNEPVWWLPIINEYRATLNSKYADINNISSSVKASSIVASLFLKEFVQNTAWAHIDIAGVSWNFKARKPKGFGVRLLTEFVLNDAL

Cytochrome P450 3A4 = Cytochrome P450 3A4 (Homo sapiens, UniProt P08684);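 note: CYP3A4 tested as one member of a cytochrome P450 panel screen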
Cytochrome P450 1A2 = target: T4, Cytochrome P450 1A2 (Homo sapiens, UniProt P05177);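 note: PubChem cytochrome P450 panel assay, CYP1A2 panel member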
T4 sequence (P05177 whole entry): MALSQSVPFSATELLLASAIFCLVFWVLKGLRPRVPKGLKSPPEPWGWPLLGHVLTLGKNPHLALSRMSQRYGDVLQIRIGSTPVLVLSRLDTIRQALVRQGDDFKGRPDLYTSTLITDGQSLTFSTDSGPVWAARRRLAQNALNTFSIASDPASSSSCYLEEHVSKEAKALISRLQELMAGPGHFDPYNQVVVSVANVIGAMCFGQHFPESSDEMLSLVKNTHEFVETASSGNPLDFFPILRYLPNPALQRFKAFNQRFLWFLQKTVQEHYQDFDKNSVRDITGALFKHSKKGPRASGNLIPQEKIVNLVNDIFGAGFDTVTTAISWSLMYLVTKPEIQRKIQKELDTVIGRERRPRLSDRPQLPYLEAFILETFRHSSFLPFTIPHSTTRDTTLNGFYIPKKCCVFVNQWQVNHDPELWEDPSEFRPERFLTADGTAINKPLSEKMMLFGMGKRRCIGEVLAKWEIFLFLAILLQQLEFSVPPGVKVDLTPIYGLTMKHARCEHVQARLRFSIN

Large T antigen = Large T antigen (Simian virus 40, UniProt P03070); assay type: functional, Betapolyomavirus macacae;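 note: Confirmatory-stage PubChem screen for compounds that inhibit SV40 T antigen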
Genome polyprotein = Genome polyprotein (dengue virus type 2, UniProt P29990); experiment: Dengue-2 NS5 methyltransferase inhibitors, primary screen, biochemical, confirmation dose response (AID 588689); assay type: functional
[2] = target: Induced myeloid leukemia cell differentiation protein Mcl-1 (Homo sapiens, UniProt Q07820); assay type: functional
SN12K1 = experiment: cells; assay type: functional; details: Homo sapiens
P388 = experiment: cells; assay type: functional; details: Mus musculus
P388/ADR = experiment: cells; assay type: functional; details: Mus musculus
[3] = target: T5, Carboxy-terminal domain RNA polymerase II polypeptide A small phosphatase 1 (Homo sapiens, UniProt Q9GZU7); experiment: inhibitors of CTDSP1, concentration-response testing, biochemical assay, absorbance-based, actives from ultra-high-throughput screening (AID 540297); assay type: functional
T5 sequence (Q9GZU7 whole entry): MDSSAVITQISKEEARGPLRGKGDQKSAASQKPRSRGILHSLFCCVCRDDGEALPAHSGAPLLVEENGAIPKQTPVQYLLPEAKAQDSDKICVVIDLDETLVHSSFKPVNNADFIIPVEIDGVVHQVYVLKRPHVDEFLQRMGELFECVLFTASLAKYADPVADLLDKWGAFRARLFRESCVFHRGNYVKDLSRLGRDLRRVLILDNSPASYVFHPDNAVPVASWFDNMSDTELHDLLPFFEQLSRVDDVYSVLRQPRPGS

[4] = target: T6, Rac GTPase-activating protein 1 (Homo sapiens, UniProt Q9H0H5); experiment: MgcRacGAP GTPase-activating activity inhibitors, confirmation, biochemical, ADP Hunter fluorescence, primary and confirmatory (AID 624330); assay type: functional
T6 sequence (Q9H0H5 whole entry): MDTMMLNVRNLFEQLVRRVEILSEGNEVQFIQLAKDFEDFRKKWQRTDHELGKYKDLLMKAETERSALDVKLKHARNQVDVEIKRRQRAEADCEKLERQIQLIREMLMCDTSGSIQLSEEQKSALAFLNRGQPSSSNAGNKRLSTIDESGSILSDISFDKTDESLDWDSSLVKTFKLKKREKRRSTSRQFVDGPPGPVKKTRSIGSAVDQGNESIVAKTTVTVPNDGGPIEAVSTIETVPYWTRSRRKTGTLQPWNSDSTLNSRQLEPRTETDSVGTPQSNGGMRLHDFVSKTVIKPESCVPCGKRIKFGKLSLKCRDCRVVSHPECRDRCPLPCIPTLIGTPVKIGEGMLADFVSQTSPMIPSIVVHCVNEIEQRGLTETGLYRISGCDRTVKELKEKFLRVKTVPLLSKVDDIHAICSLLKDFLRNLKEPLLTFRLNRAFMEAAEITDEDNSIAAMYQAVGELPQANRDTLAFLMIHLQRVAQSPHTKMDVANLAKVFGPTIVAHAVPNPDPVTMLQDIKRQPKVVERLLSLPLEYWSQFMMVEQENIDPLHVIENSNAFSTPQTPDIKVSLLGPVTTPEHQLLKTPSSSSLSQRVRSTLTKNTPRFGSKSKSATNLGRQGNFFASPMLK

Sequence of Cytochrome P450 2C9 (P11712 whole entry): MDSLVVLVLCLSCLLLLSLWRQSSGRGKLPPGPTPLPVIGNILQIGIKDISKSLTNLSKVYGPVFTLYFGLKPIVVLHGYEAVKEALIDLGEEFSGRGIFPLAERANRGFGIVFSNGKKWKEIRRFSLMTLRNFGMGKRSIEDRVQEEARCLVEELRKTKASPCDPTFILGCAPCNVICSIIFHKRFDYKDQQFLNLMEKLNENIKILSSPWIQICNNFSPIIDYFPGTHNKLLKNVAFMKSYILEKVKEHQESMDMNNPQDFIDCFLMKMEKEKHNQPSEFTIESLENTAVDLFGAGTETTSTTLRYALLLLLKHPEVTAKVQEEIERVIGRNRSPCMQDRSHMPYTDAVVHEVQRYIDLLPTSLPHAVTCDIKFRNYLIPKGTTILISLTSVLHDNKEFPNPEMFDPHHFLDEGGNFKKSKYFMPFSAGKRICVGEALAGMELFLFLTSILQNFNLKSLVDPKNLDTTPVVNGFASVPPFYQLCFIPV
Sequence of Cytochrome P450 2D6 (P10635 whole entry): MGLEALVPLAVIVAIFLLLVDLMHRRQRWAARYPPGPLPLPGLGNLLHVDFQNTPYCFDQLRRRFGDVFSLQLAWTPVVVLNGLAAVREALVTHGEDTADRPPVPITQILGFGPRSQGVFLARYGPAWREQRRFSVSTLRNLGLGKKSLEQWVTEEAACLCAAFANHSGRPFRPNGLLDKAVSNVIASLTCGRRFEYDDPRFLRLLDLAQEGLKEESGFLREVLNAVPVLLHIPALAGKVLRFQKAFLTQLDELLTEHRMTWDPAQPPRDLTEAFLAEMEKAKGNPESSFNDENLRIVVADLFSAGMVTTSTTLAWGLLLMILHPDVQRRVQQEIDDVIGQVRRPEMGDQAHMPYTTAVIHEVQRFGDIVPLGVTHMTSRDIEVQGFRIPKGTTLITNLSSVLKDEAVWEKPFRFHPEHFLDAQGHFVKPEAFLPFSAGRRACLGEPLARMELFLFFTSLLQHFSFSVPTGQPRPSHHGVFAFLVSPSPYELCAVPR
Sequence of Cytochrome P450 2C19 (P33261 whole entry): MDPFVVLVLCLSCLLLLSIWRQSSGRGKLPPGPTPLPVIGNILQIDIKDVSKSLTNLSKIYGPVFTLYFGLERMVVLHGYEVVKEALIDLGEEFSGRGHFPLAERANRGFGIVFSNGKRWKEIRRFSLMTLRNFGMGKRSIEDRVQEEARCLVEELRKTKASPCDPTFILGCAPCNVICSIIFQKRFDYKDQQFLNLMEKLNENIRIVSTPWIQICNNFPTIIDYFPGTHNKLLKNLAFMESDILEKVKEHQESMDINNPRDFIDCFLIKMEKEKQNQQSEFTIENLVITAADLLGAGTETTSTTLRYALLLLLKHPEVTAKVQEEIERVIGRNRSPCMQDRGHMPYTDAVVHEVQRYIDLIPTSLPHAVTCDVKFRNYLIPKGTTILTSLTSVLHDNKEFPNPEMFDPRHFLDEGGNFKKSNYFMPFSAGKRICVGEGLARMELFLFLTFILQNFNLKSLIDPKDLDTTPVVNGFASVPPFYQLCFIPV
Sequence of Large T antigen (P03070 whole entry): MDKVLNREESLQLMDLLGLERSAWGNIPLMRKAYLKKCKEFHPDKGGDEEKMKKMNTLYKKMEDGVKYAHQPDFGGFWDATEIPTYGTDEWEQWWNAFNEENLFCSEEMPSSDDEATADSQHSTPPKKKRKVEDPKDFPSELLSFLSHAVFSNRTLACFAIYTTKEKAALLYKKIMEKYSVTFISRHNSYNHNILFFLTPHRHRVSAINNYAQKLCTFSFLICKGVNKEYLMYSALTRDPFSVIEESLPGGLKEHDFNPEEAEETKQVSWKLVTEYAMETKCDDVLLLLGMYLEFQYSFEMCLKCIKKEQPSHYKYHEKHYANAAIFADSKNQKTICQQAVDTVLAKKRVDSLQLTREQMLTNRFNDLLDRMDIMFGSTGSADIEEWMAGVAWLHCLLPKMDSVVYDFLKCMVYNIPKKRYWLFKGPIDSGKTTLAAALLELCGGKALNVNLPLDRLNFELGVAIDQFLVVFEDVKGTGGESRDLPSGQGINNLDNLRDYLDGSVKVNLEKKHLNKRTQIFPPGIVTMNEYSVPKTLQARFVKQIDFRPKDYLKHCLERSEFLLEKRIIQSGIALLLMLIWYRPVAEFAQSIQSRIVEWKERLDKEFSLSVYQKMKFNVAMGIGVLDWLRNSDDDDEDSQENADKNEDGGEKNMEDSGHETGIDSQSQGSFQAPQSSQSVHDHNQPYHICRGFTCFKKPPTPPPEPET
Sequence of Induced myeloid leukemia cell differentiation protein Mcl-1 (Q07820 whole entry): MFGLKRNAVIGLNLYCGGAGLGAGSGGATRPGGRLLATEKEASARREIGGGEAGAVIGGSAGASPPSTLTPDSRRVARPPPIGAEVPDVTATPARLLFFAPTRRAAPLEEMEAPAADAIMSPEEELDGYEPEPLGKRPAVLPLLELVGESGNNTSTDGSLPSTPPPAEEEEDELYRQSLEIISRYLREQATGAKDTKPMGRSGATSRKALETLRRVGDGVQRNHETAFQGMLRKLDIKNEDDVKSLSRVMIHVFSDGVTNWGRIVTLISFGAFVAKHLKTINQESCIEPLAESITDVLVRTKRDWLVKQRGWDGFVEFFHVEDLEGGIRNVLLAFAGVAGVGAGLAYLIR
Sequence of Cytochrome P450 3A4 (P08684 whole entry): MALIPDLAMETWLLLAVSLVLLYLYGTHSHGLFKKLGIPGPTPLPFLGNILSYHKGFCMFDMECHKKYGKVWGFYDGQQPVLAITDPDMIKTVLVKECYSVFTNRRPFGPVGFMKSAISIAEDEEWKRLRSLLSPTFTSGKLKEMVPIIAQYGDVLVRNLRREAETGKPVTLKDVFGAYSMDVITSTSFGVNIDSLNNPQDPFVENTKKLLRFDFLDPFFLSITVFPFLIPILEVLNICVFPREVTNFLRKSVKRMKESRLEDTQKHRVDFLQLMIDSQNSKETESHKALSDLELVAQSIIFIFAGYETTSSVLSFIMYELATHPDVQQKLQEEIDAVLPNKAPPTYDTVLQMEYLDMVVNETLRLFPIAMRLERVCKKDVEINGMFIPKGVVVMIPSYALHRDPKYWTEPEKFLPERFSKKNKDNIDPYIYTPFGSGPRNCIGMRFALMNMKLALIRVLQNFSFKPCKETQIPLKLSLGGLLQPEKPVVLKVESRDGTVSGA
Sequence of Genome polyprotein (P29990 2492-3391 limits assumed): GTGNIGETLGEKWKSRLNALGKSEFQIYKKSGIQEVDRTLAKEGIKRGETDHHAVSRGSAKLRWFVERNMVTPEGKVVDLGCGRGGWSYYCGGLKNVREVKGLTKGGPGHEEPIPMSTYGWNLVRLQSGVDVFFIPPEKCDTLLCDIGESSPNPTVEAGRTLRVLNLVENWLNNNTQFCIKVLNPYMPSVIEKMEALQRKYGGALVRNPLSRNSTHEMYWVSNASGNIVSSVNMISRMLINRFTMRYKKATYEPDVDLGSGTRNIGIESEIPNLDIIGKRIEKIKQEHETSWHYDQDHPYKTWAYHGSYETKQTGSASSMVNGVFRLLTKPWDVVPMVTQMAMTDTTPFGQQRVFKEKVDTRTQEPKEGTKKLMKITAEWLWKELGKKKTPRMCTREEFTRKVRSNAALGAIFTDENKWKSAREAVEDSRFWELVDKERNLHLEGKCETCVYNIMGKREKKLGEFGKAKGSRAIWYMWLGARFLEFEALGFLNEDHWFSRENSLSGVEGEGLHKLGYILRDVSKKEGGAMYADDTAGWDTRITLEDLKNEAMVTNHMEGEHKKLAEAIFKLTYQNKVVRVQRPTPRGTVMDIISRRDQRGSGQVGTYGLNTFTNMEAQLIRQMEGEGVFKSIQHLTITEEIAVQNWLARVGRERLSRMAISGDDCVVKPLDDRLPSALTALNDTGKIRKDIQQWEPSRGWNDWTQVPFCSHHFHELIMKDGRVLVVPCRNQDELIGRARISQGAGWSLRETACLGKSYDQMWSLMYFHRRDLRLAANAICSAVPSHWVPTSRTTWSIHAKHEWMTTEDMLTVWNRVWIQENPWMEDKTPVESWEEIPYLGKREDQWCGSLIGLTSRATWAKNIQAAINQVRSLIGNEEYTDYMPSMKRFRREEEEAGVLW

Row | Structure (SMILES) | GI50 (SN12K1) | GI50 (P388) | GI50 (P388/ADR) | also measured
1 | CS(=O)(=O)Nc1cccc(-c2cc(Nc3ccccc3)ncn2)c1 | – | – | – | AC50 (Cytochrome P450 2D6): 25.1 µM (inconclusive); AC50 (Cytochrome P450 2C19): 31.6 µM (inconclusive); AC50 (Cytochrome P450 2C9): inconclusive
2 | Cc1ccc(-c2n[nH]c3c2C(C)C(C#N)=C(N)O3)cc1 (stereo unspecified) | – | – | – | EC50 (Protein RecA): 0.518 µM (active); AC50 [1]: > 380 µM (inconclusive); IC50 (Leucine aminopeptidase): 16.3 µM (active)
3 | COc1ccc(CNc2nc(-c3ccccc3CN(C)C)nc3ccccc23)c(OC)c1 | – | – | – | AC50 (Cytochrome P450 2C19): 15.8 µM (inconclusive); AC50 (Cytochrome P450 2C9): inconclusive
4 | Cc1ccccc1C(=O)NN(C)c1nc2ccccc2nc1C(F)(F)F | – | – | – | AC50 (Cytochrome P450 3A4): 7.08 µM (inconclusive); AC50 (Cytochrome P450 2C9): inconclusive
5 | CCn1c(SC)nnc1C1CCN(S(=O)(=O)c2ccc(OC)cc2)CC1 | – | – | – | AC50 (Cytochrome P450 2D6): 8.91 µM (inconclusive); AC50 (Cytochrome P450 2C9): inconclusive
6 | CCCCCCCCCCCCCCCCCC(=O)NC[C@@H](COP(=O)([O-])OCC[N+](C)(C)C)OCC | – | – | – | AC50 (Cytochrome P450 1A2): 39.8 µM (inconclusive); AC50 (Cytochrome P450 2D6): 39.8 µM (inconclusive); AC50 (Cytochrome P450 2C9): inconclusive
7 | O=C(COc1cccnc1[N+](=O)[O-])c1ccc(Cl)s1 | – | – | – | IC50 (Large T antigen): 67.7 µM (active); IC50 (Genome polyprotein): > 100 µM (active); IC50 [2]: 3.78 µM (active)
8 | CCc1ccccc1N1CCN(C(=O)c2cc(OC)c(OC)c(OC)c2)CC1 | 0.0614 µM (active) | 0.0395 µM (active) | 0.119 µM (active) | –
9 | COc1ccc(/C=N/NC(=O)c2ccc(O)cc2O)cc1CSc1ccccn1 | – | – | – | IC50 [2]: 3.42 µM (active); IC50 [3]: 5.92 µM (active)
10 | NC1CCCCC1 | 243 µM (inactive) | 92.9 µM (inactive) | – | –
11 | CC(=O)[C@H]1CCC2[C@@H]3CC=C4C(O)C(OS(=O)(=O)O)CC[C@]4(C)C3CC[C@@]21C (stereo partly specified) | > 100 µM (inactive) | > 100 µM (inactive) | > 100 µM (inactive) | –
12 | CC1[C@@H]2CC=C3C4CCC5Cc6nc7c(nc6C[C@@]5(C)C4CC(=O)[C@]32CO[C@@]1(O)C(O)CC(C)(C)O)CC1CCC2C3=C[C@H]4O[C@@]5(O[C@@](C)(CO)C[C@@H]5O)C(C)[C@@]4(O)[C@]3(C)[C@@H](O)CC2[C@]1(C)C7 (stereo partly specified) | < 0.00036 µM (active) | < 0.00036 µM (active) | 0.0105 µM (active) | –
13 | O=C1C2C3C=CC(CC3)C2C(=O)N1/N=C/c1ccc(O)c(O)c1 (stereo unspecified) | – | – | – | IC50 (Large T antigen): 4.4 µM (active); IC50 [4]: 74 µM (active); IC50 (Leucine aminopeptidase): 34.3 µM (active)
14 | CC[C@](O)(C(=O)O)c1cc2n(c(=O)c1CO)Cc1cc3ccccc3nc1-2 | 0.209 µM (active) | 0.025 µM (active) | 0.03 µM (active) | –
15 | COCCO [2-METHOXYETHANOL] | > 100 µM (inactive) | > 100 µM (inactive) | > 100 µM (inactive) | –
16 | NC(Cc1c[nH]c2ccccc12)C(=O)O (stereo not drawn) [DL-TRYPTOPHAN] | > 300 µM (inactive) | 269 µM (inactive) | > 300 µM (inactive) | –
17 | Nc1n[nH]c(N)n1 [GUANAZOLE] | 2830 µM (inactive) | 728 µM (inactive) | 1060 µM (inactive) | –
